This is an account of results in publication PMC3562233 (PLoS ONE, 2013).

Several values for one entry are separate records, joined by “and”; a condition that tells them apart may be missing. Identical values can stand only once. Entries after “also recorded” stand apart in the source; their conditions may differ. Counter-ions that a name gives are not always drawn.

For the first data set, the system named is influenza A/Udorn/72 WT virus.
Experiment: not given
It counts as cell-based.
Settings: not given
With `CC(NC(=S)NC(=O)C=Cc1ccco1)C12CC3CC(CC(C3)C1)C2` (centres unmarked) [Compound 6, N-(([1-(1-adamantyl)ethyl]amino)carbonothioyl)-3-(2-furyl)acrylamide], the “inhibition of plaque formation” value is “almost completely inhibited”.
The same measure, in the same setting: the entry for `Cc1ncc(C23CC4CC(CC(C4)C2)C3)[nH]1` [Compound 10, 5-(adamantan-1-yl) -2-methyl-1H-imidazole] is “almost completely inhibited”; for `CCSC1=NCN(C2CCCCCCC2)CN1` [Compound 34, 3-cyclooctyl-6-(ethylthio)-1,2,3,4-tetrahydro-1,3,5-triazine] it is “completely inhibited; also recorded: moderate inhibition”.

The next data set has as its target T1, WT M2 (Influenza A virus, UniProt P0DOF5). Put plainly: cell-based. Details: expressed in transfected cells; host or cells: Saccharomyces cerevisiae, multicopy plasmid, GAL1 promoter. The following applies: 0.3 µM amantadine; 27% of control without amantadine; 48 h.
Target sequence in this assay (P0DOF5 whole entry): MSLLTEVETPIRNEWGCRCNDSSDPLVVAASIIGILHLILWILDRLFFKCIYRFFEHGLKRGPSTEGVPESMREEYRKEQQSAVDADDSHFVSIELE
Take `NC12CC3CC(CC(C3)C1)C2` [Amantadine, reference compound]: the “growth of the strain expressing WT M2” value is listed as 65 % of control.

Staying with this data set, now noted: 1 µM amantadine; 27% of control without amantadine; 48 h.
Turning to `NC12CC3CC(CC(C3)C1)C2` [Amantadine, reference compound], the “growth of the strain expressing WT M2” value is 95 % of control.

Still in this data set, the particulars now being: 1 µM, 384-well plate assay, yeast expressing WT M2.
Consider `NC12CC3CC(CC(C3)C1)C2` [Amantadine, reference compound], for which the growth increase is given as 3 fold.

The same data set, now with this note: 3 µM amantadine; 27% of control without amantadine; 48 h.
For `NC12CC3CC(CC(C3)C1)C2` [Amantadine, reference compound], the “growth of the strain expressing WT M2” value is 95 % of control.

Still in this data set, the particulars now being: EC50, yeast growth restoration, yeast expressing WT M2, growth measured after 40 h.
Consider `CC(NC(=S)NC(=O)C=Cc1ccco1)C12CC3CC(CC(C3)C1)C2` (centres unmarked) [Compound 6, N-(([1-(1-adamantyl)ethyl]amino)carbonothioyl)-3-(2-furyl)acrylamide], for which the EC50 is 200 nM and < 1000 nM.
Same read-out and setting: the figure for `Cc1ncc(C23CC4CC(CC(C4)C2)C3)[nH]1` [Compound 10, 5-(adamantan-1-yl) -2-methyl-1H-imidazole] is < 1000 nM and 300 nM; for `NC(N)=NC(=O)c1nc(Cl)c(N2CCCCCC2)nc1N` [Compound 14, Hexamethylene amiloride] it is 1100 nM and 1000 nM.
For the compound `CCSC1=NCN(C2CCCCCCC2)CN1` [Compound 34, 3-cyclooctyl-6-(ethylthio)-1,2,3,4-tetrahydro-1,3,5-triazine], the EC50 stood at 300 nM.

The data set is the same for the next values; noted with them: yeast expressing WT M2, growth measured after 40 h; read-out: EC50, yeast growth restoration.
On to `O=C1NC(=S)NC(=O)C1=CNC12CC3CC(CC(C3)C1)C2` [Compound 1, 5-[(1-adamantylamino)methylene]-2-thioxodihydro-4,6(1H,5H)-pyrimidinedione], for which the EC50 came out at 2500 nM.
On the same count and under the same terms, the figure for `CC(=O)Nc1ccc(S(=O)(=O)NC23CC4CC(CC(C4)C2)C3)cc1` [Compound 2, N1-(4-[(1-adamantylamino)sulfonyl]phenyl)acetamide] is 5000 nM.
The same measure, in the same setting: the figure for `c1cc2c(cc1NC1C3CC4CC(C3)CC1C4)OCO2` (centres unmarked) [Compound 3, 2-adamantyl (1,3-benzodioxol-5-yl)amine] is 20000 nM.
In the case of `O=[N+]([O-])c1ccc(CNC23CC4CC(CC(C4)C2)C3)cc1` [Compound 4, 1-adamantyl (4-nitrobenzyl)amine], the EC50 was 5000 nM.
The same measure, in the same setting: the figure for `O=[N+]([O-])c1ccccc1CNC1C2CC3CC(C2)CC1C3` (centres unmarked) [Compound 5, 2-adamantyl (2-nitrobenzyl)amine] is 5000 nM; for `CS/C(=N/C#N)NC12CC3CC(CC(C3)C1)C2` [Compound 7, (E)-methyl N-((3s,5s,7s)-adamantan-1-yl)-N'-cyanocarbamimidothioate] it is 12000 nM; for `CNCC(=O)C12CC3CCC(CC(C3)C1)C2` [Compound 8, 2-(methylamino)-1-tricyclo[4.3.1.1~3,8~] undec-1-ylethanone hydrochloride] it is 3000 nM.
Same read-out and setting: then `CCc1noc(C)c1C(=O)NCC12CC3CC(CC(C3)C1)C2` [Compound 9, N-(adamantan-1-ylmethyl)-3-ethyl-5-methyl-1,2-oxazole-4-carboxamide], with 800 nM and < 1000 nM.
Same read-out and setting: the figure for `Cc1cc(C(=O)NC2C3CC4CC(C3)CC2C4)no1` (centres unmarked) [Compound 11, N-(adamantan-2-yl)-5-methyl-1,2-oxazole-3-carboxamide] is 1500 nM.
Consider `C1CNC(NCC23CC4CC(CC(C4)C2)C3)=N1` [Compound 12, N-(adamantan-1-ylmethyl)-4,5-dihydro-1H-imidazol-2-amine hydroiodide], for which the EC50 was 400 nM and < 1000 nM.
Still for that read-out and setting: then `OCC1CCCN1CC12CC3CC(CC(C3)C1)C2` (centres unmarked) [Compound 13, [1-(adamantan-1-ylmethyl)pyrrolidin-2-yl] methanol hydrochloride], with 15000 nM; and `C=C1C(N)CC2CC1C2(C)C` (stereo not drawn) [Compound 15, 3-amino-beta-pinene], with 500 nM and < 1000 nM.
Same read-out and setting: the figure for `CSC1=NCN(Cc2ccccc2)CN1` [Compound 18, 3-benzyl-6-(methylthio)-1,2,3,4-tetrahydro-1,3,5-triazine hydroiodide] is 12000 nM; for `Cn1cccc1CNC1CCCCCCC1` [Compound 19, N-[(1-methyl-1H-pyrrol-2-yl)methyl] cyclooctanamine] it is 30000 nM; for `CCSC1=NCN(CC2CCCCC2)CN1` [Compound 33, 3-(cyclohexylmethyl)-6-(ethylthio)-1,2,3,4-tetrahydro-1,3,5-triazine] it is 700 nM.

Tested on in the next data set: not listed separately
The experiment in a line: in vitro. The following applies: dog.
Protocol: Cytotoxicity towards MDCK cells was assayed after 48 h drug exposure with the MTT tetrazolium dye assay as described [55].
`NC12CC3CC(CC(C3)C1)C2` [Amantadine, reference compound]: the CC50 is roughly 100000 nM.
`CC(NC(=S)NC(=O)C=Cc1ccco1)C12CC3CC(CC(C3)C1)C2` (centres unmarked) [Compound 6, N-(([1-(1-adamantyl)ethyl]amino)carbonothioyl)-3-(2-furyl)acrylamide] had a CC50 greater than 30000 nM.
As for `Cc1ncc(C23CC4CC(CC(C4)C2)C3)[nH]1` [Compound 10, 5-(adamantan-1-yl) -2-methyl-1H-imidazole], the CC50 was greater than 100000 nM.
Compound `NC(N)=NC(=O)c1nc(Cl)c(N2CCCCCC2)nc1N` [Compound 14, Hexamethylene amiloride] yielded a CC50 of 16000 nM.
`CCSC1=NCN(C2CCCCCCC2)CN1` [Compound 34, 3-cyclooctyl-6-(ethylthio)-1,2,3,4-tetrahydro-1,3,5-triazine] displayed a CC50 of 75000 nM.

A further data set deals with T1, WT M2. The experiment in a line: cell-based.
Settings: not given
Target sequence in this assay (P0DOF5 whole entry, looked up): as the sequence (P0DOF5 whole entry) above
In the case of “3-(2-methylbut-3-yn-2-yl)-6-(methylthio)-1,2,3,4-tetrahydro-1,3,5-triazine hydroiodide [Compound 27]”, the “% inhibition at 100 µM in TEVC WT” value was 17.0 ± 1.9.
Same read-out and setting: the entry for `CN(C)c1nc(N)c(C(=O)NC(=N)N)nc1Cl` [Compound 20, 5-(N,N-Dimethyl)amiloride hydrochloride] is “moderate inhibition”; for `CCN(c1nc(N)c(C(=O)NC(=N)N)nc1Cl)C(C)C` [Compound 21, 5-(N-Ethyl-N-isopropyl)amiloride] it is “moderate inhibition”.
As for `Br.CSC1=NCN(C(C)(C)C)CN1` [Compound 25, 3-(tert-butyl)-6-(methylthio)-1,2,3,4-tetrahydro-1,3,5-triazine hydrobromide], the “% inhibition at 100 µM in TEVC WT” value is on record as 13.3 ± 1.5.
The same measure, in the same setting: the figure for `Br.CSC1=NCN(CCCO)CN1` [Compound 26, 3-(4-(methylthio)-5,6-dihydro-1,3,5-triazin-1(2H)-yl)propan-1-ol hydrobromide] is 5.5 ± 0.9.
As to `CCSC1=NCN(CC(C)(C)C)CN1` [Compound 32, 6-(ethylthio)-3-neopentyl-1,2,3,4-tetrahydro-1,3,5-triazine], the “% inhibition at 100 µM in TEVC WT” value is 4.7 ± 1.3.

Staying with this data set, now noted: read-out: % inhibition at 100 µM in TEVC WT.
For `NC12CC3CC(CC(C3)C1)C2` [Amantadine, reference compound], the inhibition – broadly, the change of the read-out against control, counted positive when it falls – at 100 µM was 92%.
Consider `O=[N+]([O-])c1ccc(CNC23CC4CC(CC(C4)C2)C3)cc1` [Compound 4, 1-adamantyl (4-nitrobenzyl)amine], for which the inhibition at 100 µM was 43.5%.
With `NC(N)=NC(=O)c1nc(Cl)c(N2CCCCCC2)nc1N` [Compound 14, Hexamethylene amiloride], the inhibition at 100 µM is 89.9%.
As for `CSC1=NCN(Cc2ccccc2)CN1` [Compound 18, 3-benzyl-6-(methylthio)-1,2,3,4-tetrahydro-1,3,5-triazine hydroiodide], the inhibition at 100 µM worked out at 4.5%.
As for `CN(C)c1nc(N)c(C(=O)NC(=N)N)nc1Cl` [Compound 20, 5-(N,N-Dimethyl)amiloride hydrochloride], the inhibition at 100 µM was 23.3 ± 1.9%.
In the case of `CCN(c1nc(N)c(C(=O)NC(=N)N)nc1Cl)C(C)C` [Compound 21, 5-(N-Ethyl-N-isopropyl)amiloride], the inhibition at 100 µM was determined as 47.3 ± 0.5%.
On the same count and under the same terms, the figure for `CSC1=NCN(Cc2cccs2)CN1` [Compound 23, 6-(methylthio)-3-(thiophen-2-ylmethyl)-1,2,3,4-tetrahydro-1,3,5-triazine] is 8.1 ± 1.7%; for `CCSC1=NCN(Cc2ccco2)CN1` [Compound 24, 6-(ethylthio)-3-(furan-2-ylmethyl)-1,2,3,4-tetrahydro-1,3,5-triazine] it is 17.9 ± 2.8%; for `CCSC1=NCN(Cc2ccccc2)CN1` [Compound 28, 3-benzyl-6-(ethylthio)-1,2,3,4-tetrahydro-1,3,5-triazine] it is 5.4 ± 1.6%.
Still for that read-out and setting: the figure for `CCSC1=NCN(Cc2cccs2)CN1` [Compound 29, 6-(ethylthio)-3-(thiophen-2-ylmethyl)-1,2,3,4-tetrahydro-1,3,5-triazine] is 6.7 ± 1.4%.
Same read-out and setting: then `CCSC1=NCN(CCc2cccs2)CN1` [Compound 30, 6-(ethylthio)-3-(2-(thiophen-2-yl)ethyl)-1,2,3,4-tetrahydro-1,3,5-triazine], with 1.1 ± 1.1%; and `CCSC1=NCN(CC(C)C)CN1` [Compound 31, 6-(ethylthio)-3-isobutyl-1,2,3,4-tetrahydro-1,3,5-triazine], with 1.2 ± 0.6%.
In the case of `CCSC1=NCN(CC2CCCCC2)CN1` [Compound 33, 3-(cyclohexylmethyl)-6-(ethylthio)-1,2,3,4-tetrahydro-1,3,5-triazine], the inhibition at 100 µM came to 63.9 ± 2%.
As for `CCSC1=NCN(C2CCCCCCC2)CN1` [Compound 34, 3-cyclooctyl-6-(ethylthio)-1,2,3,4-tetrahydro-1,3,5-triazine], the inhibition at 100 µM was determined as 89.7%.

The next data set concerns the target mammalian Na+/H+ exchanger.
Experiment: not given
Details: method as in PMID 3016497. The following applies: read-out: apparent Ki; cited from earlier work.
`NC(N)=NC(=O)c1nc(Cl)c(N2CCCCCC2)nc1N` [Compound 14, Hexamethylene amiloride]: the Ki is 200 nM.

In another data set the test system is M2 channel.
Experiment: not given
Also noted: method as in PMID 20570509. The following applies: weaker than amantadine; cited from earlier work.
In the case of `NC1CCCCCCC1` [Cyclooctylamine], the “binding affinity relative to amantadine” value is on record as 6 fold.
